Data: PMC9887927, “Biochemical characterization and insights into the potency of the acidic Aspergillus niger NRC114 purified α-galactosidase in removing raffinose family oligosaccharides from soymilk yogurt” (BMC Biotechnology, 2023)

System: T1, Aspergillus niger NRC114 α-galactosidase
T1 construct: gene aglB; native secreted enzyme purified from culture filtrate (ammonium sulfate, Sephadex G-100, DEAE-Sephadex A-50); 64 kDa monomer by SDS-PAGE
Assay: p-nitrophenol release, absorbance; Lineweaver-Burk plot
Assay type: biochemical
Conditions: pH 3.5, 60 °C; substrate range printed as 0.04–0.8 µM; printed unit doubtful (probably mM: compared with mM literature values, assay stock 4 mM)

Km: 0.000401 mM
Compound: O=[N+]([O-])c1ccc(O[C@H]2O[C@H](CO)[C@H](O)[C@H](O)[C@H]2O)cc1 [p-nitrophenyl-α-D-galactopyranoside]
